Reference: patent publication US20160052898A1, “NOVEL COMPOUNDS” (BAYER PHARMA AKTIENGESELLSCHAFT, priority 2013, published 2016)
Values belong to the compound of their own block, whether it stands above or below them.

Key:
Assay type in all cases: cell-based
[1] = test system: constitutive active colorectal cancer cell (CRC) Wnt pathway; experiment: HCT116 Super TopFlash cellular reporter assay (constitutive active Wnt pathway); details: Homo sapiens, HCT-116, 36 h, HCT116 TOP reporter cells, luciferase expression, 36 hours incubation, 50 μM to 15 nM
Outline: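 Luciferase luminescence served as the Wnt read-out after 36 h of compound treatment at 37 °C. Compound came from a pre-dilution series (50 μM down to 15 nM, 3.16-fold steps) in CAFTY buffer. Cells were stable HCT116 TOP reporter cells, with matched FOP-vector control cells tested in parallel, seeded a day earlier.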

[2] = test system: HEK293 FOP control reporter cell line; experiment: HEK293 FOP control vector reporter assay; details: Homo sapiens; HEK293 FOP control reporter cells, EC50 concentration of recombinant Wnt-3a, 16 hours incubation; read-out: HEK FOP IC50
Procedure: (§1) In order to determine the inhibitory activity of compounds for the WT Wnt signaling pathway, the Super TopFlash vector respectively FOP vector were cotransfected with pcDNA3 into HEK293 and stable transfected HEK293 cells were isolated by antibiotic selection. […] The recombinant human Wnt-3a was thereby used between 2500 and 5 ng/ml in two-fold dilution steps. […] Measurement of luciferase expression was done as described for the constitutive active Wnt assay.
In a parallel approach, HEK293 cells were cotransfected with the FOP control vector and pcDNA3. The FOP vector is identical to the TOP construct, but it contains instead of functional TCF elements a randomized, non-functional sequence. For this transfection a stable transfected cell line was generated as well, based on selection with Geneticin (1 mg/ml).
(§2) In preparation of the assay, the two cell lines were plated 24 hours before beginning the test at 10000 cells per well in a 384 micro titre plate (MTP) in […] growth medium. […] The recombinant human Wnt-3a was thereby applied between 2500 and 5 ng/ml in two-fold dilution steps. Selective inhibitory activity for small molecules on the wildtype Wnt pathway was determined after parallel incubation of both (TOP and FOP) HEK293 reporter cell lines with a compound dilution series from 50 μM to 15 nM in steps of 3.16-fold dilutions in CAFTY buffer (130 mM NaCl, 5 mM KCl, 20 mM HEPES, 1 mM MgCl2, 5 mM NaHCO3, pH 7.4) containing 2 mM Ca^2+ and 0.01% BSA.
(§3) The compounds were thereby serially prediluted in 100% DMSO and thereafter 50 fold into the CAFTY compound dilution buffer (described above).

wildtype Wnt pathway = experiment: HEK293 Super TopFlash cellular reporter assay, Wnt-3a stimulated (wildtype Wnt pathway); details: Homo sapiens; HEK293 TOP reporter cells, EC50 concentration of recombinant Wnt-3a, 16 hours incubation; read-out: HEK TOP OncoFlash IC50
Procedure: as §1
In order to discover and characterize small molecules which inhibit the wildtype Wnt pathway, a cellular reporter assay was employed. The corresponding assay cell was generated by transfection of the mammalian cell line HEK293 (ATCC, #CRL-1573) with the Super TopFlash vector (Morin, Science 275, 1997, 1787-1790; Molenaar et al., Cell 86 (3), 1996, 391-399). The HEK293 cell line is cultivated at 37° C. and 5% CO2 in DMEM (Life Technologies, #41965-039), supplemented with 2 mM glutamine, 20 mM HEPES, 1.4 mM pyruvate, 0.15% Na-bicarbonate and 10% foetal bovine serum (GIBCO, #10270). Stable transfectants were generated by selection with 300 μg/ml Hygromycin.
as §2, §3

[3] = test system: HCT116 FOP control reporter cell line; experiment: HCT116 FOP control vector reporter assay (non-functional TCF elements); details: Homo sapiens, HCT-116, 36 h, HCT116 FOP control reporter cells, luciferase expression, 36 hours incubation, 50 μM to 15 nM; read-out: HCT116 FOPFlash IC50
Outline: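 Stable HCT116 line carrying the non-functional FOP luciferase construct, 10000 cells/well plated 24 hrs before. Compounds 50 μM to 15 nM (3.16-fold steps) in CAFTY buffer pH 7.4 with 2 mM Ca2+, 36 hours at 37° C; luciferase luminescence read.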

Compound: COc1ccc(NC(=O)c2ccc(-c3cccc(F)c3)cc2)cc1NC(=O)CN1CCOCC1 [Example 81, 3′-fluoro-N-{4-methoxy-3-[(morpholin-4-ylacetyl)amino]phenyl}biphenyl-4-carboxamide]
- IC50 [1]: 0.29 µM
- IC50 [2]: 9.8 µM
- IC50 (wildtype Wnt pathway): 0.32 µM
- IC50 [3]: ≥ 50 µM

Compound: O=C(Nc1ccc(-c2ccccc2)cc1)c1ccc(OCc2ccccc2)c(NC(=O)C2(N3CCOCC3)CC2)c1 [Example 88, 4-(benzyloxy)-N-(biphenyl-4-yl)-3-({[1-(morpholin-4-yl)cyclopropyl]carbonyl}amino)benzamide]
- IC50 [1]: 0.0448 µM
- IC50 [2]: ≥ 50 µM
- IC50 (wildtype Wnt pathway): 0.093 µM
- IC50 [3]: ≥ 50 µM

Compound: C[C@@H](C(=O)Nc1cc(NC(=O)c2ccc(-c3ccccc3)cc2)ccc1OC(F)(F)F)N1CC2CCC(C1)O2 [Example 59, N-[3-{[(2S)-2-(8-oxa-3-azabicyclo[3.2.1]oct-3-yl)propanoyl]amino}-4-(trifluoromethoxy)phenyl]biphenyl-4-carboxamide]
- IC50 [1]: 0.111 µM
- IC50 [2]: ≥ 50 µM
- IC50 (wildtype Wnt pathway): 1.7 µM
- IC50 [3]: 40 µM

Compound: O=C(CN1CCOCC1)Nc1cc(NC(=O)c2ccc(-c3ccc(F)cc3)cc2)ccc1OC(F)(F)F [Example 75, 4′-fluoro-N-{3-[(morpholin-4-ylacetyl)amino]-4-(trifluoromethoxy)phenyl}biphenyl-4-carboxamide]
- IC50 [1]: 0.145 µM
- IC50 [2]: 40 µM
- IC50 (wildtype Wnt pathway): 0.85 µM
- IC50 [3]: ≥ 50 µM

Compound: COc1ccc(NC(=O)c2ccc(-c3ccccc3)cc2)cc1NC(=O)CN1CCSCC1 [Example 37, N-{4-methoxy-3-[(thiomorpholin-4-ylacetyl)amino]phenyl}biphenyl-4-carboxamide]
- IC50 [1]: 1.25 µM
- IC50 [2]: ≥ 50 µM
- IC50 (wildtype Wnt pathway): 0.64 µM
- IC50 [3]: ≥ 50 µM

Compound: COc1ccc(NC(=O)c2ccc(-c3ccccc3)cc2)cc1NC(=O)CN1CCC(OC)CC1 [Example 39, N-(4-methoxy-3-{[(4-methoxypiperidin-1-yl)acetyl]amino}phenyl)biphenyl-4-carboxamide]
- IC50 [1]: 2.2 µM
- IC50 [2]: ≥ 50 µM
- IC50 (wildtype Wnt pathway): 1.1 µM
- IC50 [3]: ≥ 50 µM

Compound: COc1ccc(NC(=O)c2ccc(-c3ccccc3)cc2)cc1NC(=O)[C@H](C)N1CC2CCC(C1)O2 [Example 56, N-(4-methoxy-3-{[(2S)-2-(8-oxa-3-azabicyclo[3.2.1]oct-3-yl)propanoyl]amino}phenyl)biphenyl-4-carboxamide]
- IC50 [1]: 0.222 µM
- IC50 [2]: ≥ 50 µM
- IC50 (wildtype Wnt pathway): 4 µM
- IC50 [3]: ≥ 50 µM

Further lines, with some results ahead:

- IC50 [1]: 0.0385 µM
- IC50 (wildtype Wnt pathway): 0.31 µM
- IC50 [3]: 21 µM
Compound: O=C(CN1CCOCC1)Nc1cc(C(=O)Nc2ccc(-c3ccccc3)cc2)ccc1C(=O)NC1CC1 [Example 107, N^4-(biphenyl-4-yl)-N^1-cyclopropyl-2-[(morpholin-4-ylacetyl)amino]terephthalamide]
- IC50 [2]: 36 µM

- IC50 [1]: 0.0242 µM
- IC50 (wildtype Wnt pathway): 0.25 µM
- IC50 [3]: ≥ 50 µM
Compound: O=C(Nc1ccc(-c2ccccc2)cc1)c1ccc(Cl)c(NC(=O)C2(N3CCOCC3)CC2)c1 [Example 97, N-(biphenyl-4-yl)-4-chloro-3-({[1-(morpholin-4-yl)cyclopropyl]carbonyl}amino)benzamide]
- IC50 [2]: ≥ 50 µM

- IC50 [1]: 1.55 µM
- IC50 (wildtype Wnt pathway): 0.82 µM
- IC50 [3]: ≥ 50 µM
Compound: COc1ccc(NC(=O)c2ccc(-c3ccccc3)cc2)cc1NC(=O)CN1CCCOCC1 [Example 36, N-{4-methoxy-3-[(1,4-oxazepan-4-ylacetyl)amino]phenyl}biphenyl-4-carboxamide]
- IC50 [2]: 9.9 µM

- IC50 [1]: 0.05 µM
- IC50 (wildtype Wnt pathway): 0.0206 µM
- IC50 [3]: 27.4 µM
Compound: CC(=O)NCCCOc1ccc(C(=O)Nc2ccc(-c3ccccc3)cc2)cc1NC(=O)C1(N2CCOCC2)CC1 [Example 90, 4-(3-acetamidopropoxy)-N-(biphenyl-4-yl)-3-({[1-(morpholin-4-yl)cyclopropyl]carbonyl}amino)benzamide]
- IC50 [2]: 6.1 µM
